Among the test systems are HOP-92 NSCLC; MALME-3M melanoma; NCI-H522 lung; PC-3 prostate; SF-268 CNS; SK-MEL-5 melanoma; SNB-19 CNS; SR leukemia; TK-10 renal; SK-MEL-2 melanoma.
What all share (assay): inhibition of tumour cell growth, NCI panel, 48 h

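Values below derive from 48-hour exposures of cells grown in 96-well plates, with endpoints linearly interpolated between the two concentrations bracketing the appropriate inhibition level. GI50 marks 50% less growth. The concentration for full growth arrest is given as TGI.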

For the compound `Cc1cc(Nc2nc(-c3cccnc3)nc3ccccc23)n[nH]1`, the GI50 in the experiment with HOP-92 NSCLC was 1.62 µM; in the experiment with MALME-3M melanoma it was more than 100 µM; in the experiment on NCI-H522 lung, 1.69 µM; with PC-3 prostate it was 1.85 µM; in the experiment with SF-268 CNS, 2.47 µM; in the experiment with SK-MEL-5 melanoma, 4 µM. Moreover, the GI50 is 5.98 µM in the experiment on SNB-19 CNS, 0.481 µM in the experiment with SR leukemia and 0.607 µM in the experiment with TK-10 renal. The TGI was 6.63 µM in the experiment on HOP-92 NSCLC; more than 100 µM in the experiment with MALME-3M melanoma; more than 100 µM in the experiment with NCI-H522 lung; more than 100 µM in the experiment with PC-3 prostate; more than 67.2 µM in the experiment with SF-268 CNS; more than 63.6 µM with SK-MEL-5 melanoma. Besides, the TGI in the experiment on SNB-19 CNS is more than 100 µM; in the experiment on SR leukemia, more than 38.5 µM; in the experiment on TK-10 renal, 99.1 µM.
For `CCC(c1ccc(OC)cc1)C(CC)c1ccc(O)c(CN2CCN(C)CC2)c1` (stereo not drawn), the GI50 in the experiment with HOP-92 NSCLC is 2 µM; with NCI-H522 lung, 4.74 µM; with PC-3 prostate, 6.73 µM; in the experiment on SF-268 CNS, 7.66 µM; with SK-MEL-2 melanoma it was 2.85 µM; in the experiment with SK-MEL-5 melanoma it was 1.69 µM. Besides, the values for the GI50 with SNB-19 CNS, in the experiment on SR leukemia and in the experiment with TK-10 renal were 4.88 µM, 1.71 µM and 4.48 µM, respectively. Moreover, the TGI in the experiment with HOP-92 NSCLC is 9.64 µM; in the experiment on NCI-H522 lung, 17 µM; in the experiment with PC-3 prostate, 21.2 µM; in the experiment with SF-268 CNS, 21.5 µM; with SK-MEL-2 melanoma it was 6.46 µM; in the experiment on SK-MEL-5 melanoma, 3.22 µM. The TGI in the experiment with SNB-19 CNS worked out at 18.5 µM; in the experiment with SR leukemia, 5.44 µM; in the experiment on TK-10 renal, 15.6 µM.
On to `Nc1cc(O)ccc1N=Nc1ccc(-c2nc3ccccc3[nH]2)cc1`, for which the GI50 in the experiment on HOP-92 NSCLC is 0.67 µM; with NCI-H522 lung, 34.2 µM; in the experiment with PC-3 prostate it was 20.4 µM; in the experiment on SF-268 CNS, 3.07 µM; with SK-MEL-2 melanoma, 45.1 µM; with SK-MEL-5 melanoma it was 38.8 µM. The GI50 is more than 100 µM in the experiment with SNB-19 CNS, 68.5 µM in the experiment with SR leukemia and 16.1 µM in the experiment on TK-10 renal. The TGI in the experiment with HOP-92 NSCLC is 15.5 µM; in the experiment on NCI-H522 lung, more than 100 µM; with PC-3 prostate, more than 100 µM; in the experiment on SF-268 CNS it was 22.8 µM; with SK-MEL-2 melanoma it was more than 100 µM; in the experiment on SK-MEL-5 melanoma it was more than 100 µM. Moreover, the TGI in the experiment on SNB-19 CNS, in the experiment on SR leukemia and in the experiment with TK-10 renal was more than 100 µM throughout.
`Cn1nc(-c2ccc(Cl)cc2)nc2c(=O)n(C)c(=O)nc1-2`: the GI50 in the experiment with HOP-92 NSCLC is 1.72 µM; with MALME-3M melanoma it was 0.382 µM; with NCI-H522 lung, 0.864 µM; in the experiment with PC-3 prostate, 1.19 µM; in the experiment with SF-268 CNS, 1.8 µM; in the experiment on SK-MEL-2 melanoma it was 1.5 µM. The values for the GI50 in the experiment on SK-MEL-5 melanoma, in the experiment with SNB-19 CNS and in the experiment on TK-10 renal were 0.321 µM, 3.03 µM and 6.09 µM, respectively. For the same compound, the TGI turned out to be 4.99 µM in the experiment on HOP-92 NSCLC; 1.14 µM in the experiment with MALME-3M melanoma; 1.67 µM with NCI-H522 lung; 7.9 µM in the experiment on PC-3 prostate; 6.58 µM with SF-268 CNS; 9.29 µM with SK-MEL-2 melanoma. Moreover, the TGI was 0.878 µM with SK-MEL-5 melanoma, 6.73 µM in the experiment with SNB-19 CNS and 24.8 µM with TK-10 renal.
For the compound `C=C1C(=O)O[C@H]2[C@H]1CC/C(COC(=O)CCSCCC(=O)OC/C1=C/CC[C@@]3(C)O[C@H]3[C@H]3OC(=O)C(=C)[C@@H]3CC1)=C\CC[C@@]1(C)O[C@@H]21`, the GI50 was 1.26 µM in the experiment with HOP-92 NSCLC; 1.12 µM in the experiment with MALME-3M melanoma; 0.686 µM in the experiment on NCI-H522 lung; 1.82 µM in the experiment with PC-3 prostate; 1.63 µM in the experiment with SF-268 CNS; 2.18 µM with SK-MEL-2 melanoma. Besides, the GI50 in the experiment with SK-MEL-5 melanoma was 1.64 µM; in the experiment on SNB-19 CNS it was 2.43 µM; in the experiment with TK-10 renal, 1.5 µM. Also, the TGI in the experiment with HOP-92 NSCLC was found to be 2.7 µM; with MALME-3M melanoma it was 2.73 µM; in the experiment with NCI-H522 lung it was 2.29 µM; with PC-3 prostate, 4.8 µM; in the experiment with SF-268 CNS, 4.54 µM; in the experiment on SK-MEL-2 melanoma, 4.88 µM. For the same compound, the TGI amounted to 3.14 µM in the experiment on SK-MEL-5 melanoma, 7.29 µM in the experiment with SNB-19 CNS and 2.98 µM with TK-10 renal.
In the case of `Clc1ccc(-c2csc(Nc3cccc(-c4csc(-c5ccccc5)n4)c3)n2)cc1`, the GI50 in the experiment on HOP-92 NSCLC is 12.5 µM; with NCI-H522 lung it was 10.2 µM; with PC-3 prostate, 5.71 µM; in the experiment on SF-268 CNS, 8.68 µM; with SK-MEL-2 melanoma, 10.6 µM; in the experiment with SK-MEL-5 melanoma, 8.95 µM. Moreover, the GI50 in the experiment on SNB-19 CNS is 13 µM; with SR leukemia it was 6.8 µM; with TK-10 renal, 19.8 µM. For the same compound, the TGI was more than 50 µM in the experiment with HOP-92 NSCLC; 23.5 µM in the experiment with NCI-H522 lung; 17 µM in the experiment on PC-3 prostate; 19.6 µM with SF-268 CNS; 26.1 µM in the experiment on SK-MEL-2 melanoma; 18.9 µM with SK-MEL-5 melanoma. The TGI with SNB-19 CNS was 27.3 µM; in the experiment on SR leukemia, 28.7 µM; in the experiment on TK-10 renal it was more than 50 µM.
In the case of `Oc1ccc(O)c(-c2cc(-c3ccc(Cl)cc3)nn2-c2ccccc2)c1`, the GI50 is 2.71 µM in the experiment on HOP-92 NSCLC; 2.4 µM in the experiment with NCI-H522 lung; 3.19 µM in the experiment on PC-3 prostate; 2.71 µM in the experiment on SF-268 CNS; 23.4 µM in the experiment on SK-MEL-2 melanoma; 10.1 µM in the experiment with SK-MEL-5 melanoma. For the same compound, the GI50 is 3 µM in the experiment with SR leukemia and 6.58 µM with TK-10 renal. Moreover, the TGI was 22.9 µM in the experiment with HOP-92 NSCLC; 5.44 µM in the experiment with NCI-H522 lung; 13.1 µM in the experiment on PC-3 prostate; 12.2 µM in the experiment on SF-268 CNS; more than 100 µM in the experiment on SK-MEL-2 melanoma; 28.8 µM in the experiment on SK-MEL-5 melanoma. Moreover, the TGI amounted to 14.4 µM with SR leukemia and 25.6 µM in the experiment on TK-10 renal.
As for `COc1cccc(CSCC(=O)O)c1`, the TGI in the experiment with HOP-92 NSCLC, in the experiment with MALME-3M melanoma, in the experiment on NCI-H522 lung, in the experiment on PC-3 prostate, in the experiment with SF-268 CNS and in the experiment on SK-MEL-2 melanoma was more than 100 µM throughout. Also, the TGI in the experiment with SK-MEL-5 melanoma, in the experiment with SNB-19 CNS and with TK-10 renal was more than 100 µM each time.

(Values after PubChem BioAssay (NCI).)
